Experimental data as given in publication PMC11207335, “In Vitro Metabolism and Transport Characteristics of Zastaprazan” (Pharmaceutics, 2024).
Like-named read-outs stand apart in the source and are kept apart here.

Assays:
[1] = Apparent permeability in Caco-2 cells; format: in vitro ADME; settings: human; for Papp A→B at 1 h, 4 µM / Papp B→A at 1 h, 4 µM: Caco-2, pH 7.4
Experimental: Caco-2 cells (passage no. 41–42) were grown in tissue culture flasks containing Dulbecco’s Modified Eagle Medium supplemented with 20% FBS, 1% nonessential amino acids, and 1% penicillin–streptomycin. […] The culture medium was replaced every other day. On the day of the experiment, the growth medium was discarded, and the attached cells were washed with prewarmed HBSS (pH 7.4) and preincubated with HBSS for 20 min at 37 °C. […] Aliquots (30 μL) of each sample were vortex-mixed with 90 μL of IS solution for 1 min, and then centrifugation was performed at 13,500 rpm at 4 °C for 5 min. Aliquots (5 μL) of the supernatant were injected into the LC-MS/MS for analysis.

[2] = biological target: T1, MATE1 (Homo sapiens, UniProt Q96FL8); assay: Uptake into HEK293 cells expressing MATE1; settings: for Uptake Rate / Fold-Change: 6 μM; for Fold-Change: vs HEK293-mock; for Substrate: MATE1
T1 sequence (Q96FL8 1-570): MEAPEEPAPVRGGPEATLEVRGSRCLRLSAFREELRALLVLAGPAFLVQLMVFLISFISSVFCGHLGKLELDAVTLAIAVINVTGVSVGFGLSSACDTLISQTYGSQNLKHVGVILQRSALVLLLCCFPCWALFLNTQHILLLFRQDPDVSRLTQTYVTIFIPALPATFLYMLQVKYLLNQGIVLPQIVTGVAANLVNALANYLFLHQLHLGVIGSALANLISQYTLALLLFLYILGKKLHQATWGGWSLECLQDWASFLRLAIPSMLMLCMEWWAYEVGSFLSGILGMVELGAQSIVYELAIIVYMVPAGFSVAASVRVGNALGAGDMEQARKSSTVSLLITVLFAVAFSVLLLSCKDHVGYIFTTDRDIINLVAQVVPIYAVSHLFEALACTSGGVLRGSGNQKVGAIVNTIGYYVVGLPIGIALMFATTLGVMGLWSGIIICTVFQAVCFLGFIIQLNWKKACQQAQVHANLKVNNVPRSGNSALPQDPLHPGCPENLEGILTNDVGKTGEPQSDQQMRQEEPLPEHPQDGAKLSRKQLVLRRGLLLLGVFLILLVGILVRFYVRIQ

[3] = biological target: MATE2K (Homo sapiens, UniProt Q86VL8); assay: Uptake into HEK293 cells expressing MATE2K; settings: for Uptake Rate / Fold-Change: 6 μM, HEK293-MATE2K; for Fold-Change: vs HEK293-mock; for Substrate: MATE2K
Sequence of MATE2K (Q86VL8 1-566 isoform Q86VL8-3): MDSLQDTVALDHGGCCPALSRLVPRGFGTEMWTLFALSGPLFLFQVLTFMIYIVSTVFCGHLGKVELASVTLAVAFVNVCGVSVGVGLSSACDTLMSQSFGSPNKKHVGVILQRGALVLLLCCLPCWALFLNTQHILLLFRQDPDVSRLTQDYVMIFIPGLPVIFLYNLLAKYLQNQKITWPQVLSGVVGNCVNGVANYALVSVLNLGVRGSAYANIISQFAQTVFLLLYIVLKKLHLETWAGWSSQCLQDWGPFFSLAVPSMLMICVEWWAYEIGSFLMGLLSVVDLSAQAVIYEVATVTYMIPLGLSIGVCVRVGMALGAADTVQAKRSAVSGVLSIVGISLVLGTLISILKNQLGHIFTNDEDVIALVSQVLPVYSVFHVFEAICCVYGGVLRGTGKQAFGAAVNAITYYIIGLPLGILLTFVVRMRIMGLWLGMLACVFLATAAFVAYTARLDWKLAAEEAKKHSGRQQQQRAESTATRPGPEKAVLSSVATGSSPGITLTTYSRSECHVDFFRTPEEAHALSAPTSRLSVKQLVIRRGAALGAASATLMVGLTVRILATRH

[4] = test system: HEK293-mock cells; assay: Uptake into HEK293-mock cells; settings: 6 μM
[5] = biological target: T2, OCT2 (Homo sapiens, UniProt O15244); assay: Uptake into HEK293 cells expressing OCT2; settings: for Uptake Rate / Fold-Change: 6 μM; for Fold-Change: vs HEK293-mock; for Substrate: OCT2
T2 sequence (O15244 1-555): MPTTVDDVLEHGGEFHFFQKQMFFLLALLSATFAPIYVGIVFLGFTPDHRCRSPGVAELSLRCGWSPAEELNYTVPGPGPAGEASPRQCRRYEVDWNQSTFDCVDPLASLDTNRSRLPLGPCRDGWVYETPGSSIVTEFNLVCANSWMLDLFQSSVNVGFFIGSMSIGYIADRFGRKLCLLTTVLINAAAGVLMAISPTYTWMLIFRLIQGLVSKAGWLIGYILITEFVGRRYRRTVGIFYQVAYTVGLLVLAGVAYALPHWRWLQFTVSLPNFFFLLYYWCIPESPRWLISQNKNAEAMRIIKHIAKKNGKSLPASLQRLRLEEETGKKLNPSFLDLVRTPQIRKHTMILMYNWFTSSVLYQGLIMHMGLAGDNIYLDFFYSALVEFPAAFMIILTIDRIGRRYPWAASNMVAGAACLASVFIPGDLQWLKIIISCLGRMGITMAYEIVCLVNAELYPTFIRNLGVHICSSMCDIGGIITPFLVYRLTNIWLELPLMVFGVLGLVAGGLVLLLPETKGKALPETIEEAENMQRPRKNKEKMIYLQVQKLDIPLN

[6] = biological target: T3, P-gp (Homo sapiens, UniProt P08183); assay: Permeability in LLC-PK1-P-gp cells; format: in vitro ADME; settings: for Substrate: P-gp; for Papp A→B at 1 h, 4 µM / Papp B→A at 1 h, 4 µM / efflux ratio at 1 h, 4 µM: pig, LLC-PK1-P-gp; for efflux ratio at 1 h, 4 µM: read-out: ER
T3 construct: host or cells: LLC-PK1 (porcine kidney cells)
T3 sequence (P08183 whole entry): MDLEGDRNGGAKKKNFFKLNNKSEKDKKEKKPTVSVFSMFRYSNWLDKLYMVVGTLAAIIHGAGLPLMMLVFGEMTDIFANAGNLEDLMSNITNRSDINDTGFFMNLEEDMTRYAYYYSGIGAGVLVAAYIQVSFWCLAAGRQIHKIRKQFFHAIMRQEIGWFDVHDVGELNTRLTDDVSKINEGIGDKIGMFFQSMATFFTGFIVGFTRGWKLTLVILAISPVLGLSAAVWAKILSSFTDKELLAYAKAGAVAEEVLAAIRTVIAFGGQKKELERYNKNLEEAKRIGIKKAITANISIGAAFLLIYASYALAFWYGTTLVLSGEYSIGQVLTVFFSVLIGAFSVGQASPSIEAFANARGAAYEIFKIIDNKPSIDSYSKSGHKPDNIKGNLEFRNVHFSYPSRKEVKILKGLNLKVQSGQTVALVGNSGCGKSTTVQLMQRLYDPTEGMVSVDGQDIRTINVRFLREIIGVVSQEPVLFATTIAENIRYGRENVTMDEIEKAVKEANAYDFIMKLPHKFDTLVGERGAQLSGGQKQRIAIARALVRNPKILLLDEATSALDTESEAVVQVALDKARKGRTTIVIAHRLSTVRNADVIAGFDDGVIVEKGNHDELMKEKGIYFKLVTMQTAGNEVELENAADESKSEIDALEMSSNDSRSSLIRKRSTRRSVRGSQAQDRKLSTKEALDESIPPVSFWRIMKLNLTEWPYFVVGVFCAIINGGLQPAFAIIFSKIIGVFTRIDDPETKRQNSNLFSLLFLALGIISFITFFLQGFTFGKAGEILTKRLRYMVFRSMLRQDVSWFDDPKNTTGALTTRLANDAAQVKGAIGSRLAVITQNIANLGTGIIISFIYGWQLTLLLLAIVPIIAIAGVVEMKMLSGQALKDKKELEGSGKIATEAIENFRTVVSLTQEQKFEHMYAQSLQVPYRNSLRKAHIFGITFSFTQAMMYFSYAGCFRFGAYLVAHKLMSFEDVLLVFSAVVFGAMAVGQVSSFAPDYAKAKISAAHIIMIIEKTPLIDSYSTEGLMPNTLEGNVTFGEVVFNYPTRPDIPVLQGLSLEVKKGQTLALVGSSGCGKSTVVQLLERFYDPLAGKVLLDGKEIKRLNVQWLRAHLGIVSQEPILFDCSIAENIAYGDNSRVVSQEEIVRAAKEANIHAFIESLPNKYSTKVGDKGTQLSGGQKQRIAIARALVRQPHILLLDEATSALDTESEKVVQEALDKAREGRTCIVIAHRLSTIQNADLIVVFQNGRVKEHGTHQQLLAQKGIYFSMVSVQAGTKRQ
Experimental: LLC-PK1-P-gp or BCRP cells were seeded on collagen-coated 24-transwell membranes at a density of 2.5 × 10^5 cells/mL and maintained at 37 °C in a humidified atmosphere with 5% CO2/95% air for 5 days in Medium 199 supplemented with 10% […], 50 μg/mL of gentamycin, and 50 μg/mL of hygromycin. The culture medium was replaced every other day. On the day of the experiment, the growth medium was discarded, and the attached cells were washed with prewarmed HBSS (pH 7.4) and preincubated with HBSS for 20 min at 37 °C. […] Aliquots (0.1 mL) in the apical side were transferred to clean tubes every 15 min for 1 h and replaced with an equal volume of fresh HBSS.
LLC-PK1-P-gp or BCRP cells were seeded on collagen-coated 24-transwell membranes at a density of 2.5 × 10^5 cells/mL and cultured for 5 days. The growth medium was discarded on the day of the experiment, and the attached cells were washed with prewarmed HBSS (pH 7.4) and preincubated with HBSS for 20 min at 37 °C. […] Aliquots (0.1 mL) in the apical side were transferred to clean tubes every 15 min for 1 h and replaced with an equal volume of fresh HBSS. Aliquots (30 μL) of each sample were vortex-mixed with 90 μL of IS solution for 1 min, and then centrifugation was performed at 13,500 rpm at 4 °C for 5 min. Aliquots (5 μL) of the supernatant were injected into the LC-MS/MS for analysis.
The permeability (Papp) was calculated from the following equation [23, 24]: Papp(cm/s)=transport ratenmol/s/JP−1366 or M1 concentration (μM)×surface area of membrane (cm^2)

[7] = HEK293-MATE1, cimetidine 100 μM
[8] = pH 7.4, with CsA 20 μM, CsA 20 μM

Row | SMILES | Papp A→B at 1 h, 4 µM [1] [×10⁻⁶ cm/s] | Papp B→A at 1 h, 4 µM [1] [×10⁻⁶ cm/s] | Uptake Rate [2, 7] [pmol/min/10^5 Cells] | Uptake Rate ([2]; HEK293-MATE1, control) [pmol/min/10^5 Cells] | Substrate [2] | Uptake Rate ([3]; cimetidine 100 μM) [pmol/min/10^5 Cells] | Uptake Rate ([3]; control) [pmol/min/10^5 Cells] | Substrate [3] | Uptake Rate ([4]; cimetidine 100 μM) [pmol/min/10^5 Cells] | Uptake Rate ([4]; control) [pmol/min/10^5 Cells] | Uptake Rate ([4]; probenecid 20 μM) [pmol/min/10^5 Cells] | Uptake Rate ([4]; rifampin 20 μM) [pmol/min/10^5 Cells] | Uptake Rate ([5]; HEK293-OCT2, cimetidine 100 μM) [pmol/min/10^5 Cells] | Uptake Rate ([5]; HEK293-OCT2, control) [pmol/min/10^5 Cells] | Substrate [5] | Substrate [6] | Papp A→B at 1 h, 4 µM [6, 8] [×10⁻⁶ cm/s] | Papp B→A at 1 h, 4 µM [6, 8] [×10⁻⁶ cm/s] | Papp A→B at 1 h, 4 µM ([6]; pH 7.4, Control) [×10⁻⁶ cm/s] | Papp B→A at 1 h, 4 µM ([6]; pH 7.4, Control) [×10⁻⁶ cm/s] | also measured
1 | Cc1cccc(CO)c1CNc1cc(C(=O)N2CCC2)cn2c(C)c(C)nc12 [M1, azetidin-1-yl(8-((2-(hydroxymethyl)-6-methyl-benzyl)amino)-2,3-dimethylimidazo[1,2-a]pyridin-6-yl)methanone] | 3.36 ± 0.24 | 20.3 ± 1.51 | 78.57 ± 5.38 | 65.32 ± 4.13 | No | 72.81 ± 3.33 | 59.19 ± 3.66 | No | 55.35 ± 2.24 | 51.53 ± 3.16 | 54.22 ± 1.90 | 57.80 ± 0.89 | 49.28 ± 4.50 | 51.71 ± 1.36 | No | Yes | 18.5 ± 0.96 | 62.8 ± 5.26 | 6.99 ± 0.6 | 99.3 ± 1.66 | efflux ratio at 1 h, 4 µM ([1]; pH 7.4, Caco-2, mean Papp,BA / mean Papp,AB, read-out: ER): 6; Fold-Change [2, 7]: 1.5; Fold-Change ([2]; HEK293-MATE1, control): 1.3; Fold-Change ([3]; cimetidine 100 μM): 1.4; Fold-Change ([3]; control): 1.1; Fold-Change ([4]; cimetidine 100 μM): 1.1; Fold-Change ([4]; control): 1.0; Fold-Change ([4]; probenecid 20 μM): 1.1; Fold-Change ([4]; rifampin 20 μM): 1.1; Fold-Change ([5]; HEK293-OCT2, cimetidine 100 μM): 1.0; Fold-Change ([5]; HEK293-OCT2, control): 1.0; efflux ratio at 1 h, 4 µM [6, 8]: 3.4; efflux ratio at 1 h, 4 µM ([6]; pH 7.4, Control): 14.2
2 | Cc1cccc(C)c1CNc1cc(C(=O)N2CCC2)cn2c(C)c(C)nc12 [JP-1366, 1-azetidinyl(8-(((2,6-dimethylphenyl)methyl)amino)-2,3-dimethylimidazo(1,2-a)pyridin-6-yl)methanone] | 23 ± 5.79 | 10.7 ± 1.77 | 78.57 ± 5.38 | 65.32 ± 4.13 | No | 72.81 ± 3.33 | 59.19 ± 3.66 | No | 55.35 ± 2.24 | 51.53 ± 3.16 | 54.22 ± 1.90 | 57.80 ± 0.89 | 49.28 ± 4.50 | 51.71 ± 1.36 | No | No | 20.7 ± 1.31 | 32 ± 0.94 | 20.3 ± 0.53 | 25.6 ± 1.71 | 
